Assay results taken from patent publication US10577395B2 (priority 2014, dated 2020).
Converted amounts (≈) assume the structure as drawn. Where two headings read alike, the source gives them in different places.

How the values were obtained:
[1] = test system: vancomycin-resistant Enterococcus faecalis (VanB VRE, strain ATCC 51299); assay: microbe, parasite or virus in culture; type: cell-based; settings: for MIC: Enterococcus faecalis
Description: (§1) Assays were carried out following the methods of Clinical and Laboratory Standards Institute; Methods for Dilution Antimicrobial Susceptibility Tests for Bacteria That Grow Aerobically; Approved Standard, […].; CLSI document M07-A8; Clinical and Laboratory Standards Institute: Wayne, Pa., 2009.
(§2) This diluted bacterial stock solution was then inoculated into a well of a V-shaped 96-well glass coated microtiter plate, supplemented with serial diluted aliquots of the antibiotic solution DMSO (4 μL), to achieve a total assay volume of 0.1 mL. The plate was then incubated at 37° C. for 18 hours, after which minimal inhibitory concentrations (MICs) were determined by monitoring the cell growth (observed as a pellet) in the wells. The lowest concentration of antibiotic (in μg/mL) capable of eliminating the cell growth in the wells is reported as the MIC.

[2] = test system: vancomycin-resistant Enterococcus faecalis (VanA VRE, BM4166); assay: microbe, parasite or virus in culture; type: cell-based; settings: for MIC: Enterococcus faecalis, VRE
Description: as §1, §2

[3] = test system: methicillin and oxacillin-resistant Staphylococcus aureus subsp. aureus (MRSA strain ATCC 43300); assay: Antimicrobial assay, MIC, MRSA; type: cell-based; settings: for MIC: Staphylococcus aureus
Description: as §1, §2

[4] = test system: VSSA and MRSA; assay: Antimicrobial assay, MIC for VSSA and MRSA together; type: cell-based, S. aureus
Description: as §1, §2

[5] = test system: VanA VRE; assay: Antimicrobial assay, MIC for VanA VRE; type: cell-based, E. faecalis and E. faecium; settings: for MIC: Enterococcus, VRE, read-out: MIC against VanA VRE; for improvement in activity against VanA VRE on introduction of the (4-chlorobiphenyl)methyl group: relative to the analogue without CBP group
Description: as §1, §2

[6] = test system: vancomycin-sensitive strain of E. faecium; settings: Kahne et al., Chem. Rev. 2005; cited from earlier work
[7] = relative to D-Ala-D-Ala; cited from earlier work
[8] = test system: vancomycin-sensitive Staphylococcus aureus (VSSA strain ATCC 25923); assay: Antimicrobial assay, MIC, vancomycin-sensitive S. aureus; type: cell-based; settings: for MIC: Staphylococcus aureus
Description: as §1, §2

[9] = test system: Enterococcus faecium (VanA VRE, ATCC BAA-2317); assay: Antimicrobial assay, MIC, VanA E. faecium; type: cell-based; settings: for MIC: Enterococcus faecium
Description: as §1, §2

[10] = test system: vancomycin-resistant strain of E. faecium; assay: MIC reported by Kahne et al., vancomycin-resistant E. faecium; type: cell-based; settings: Kahne data
[11] = test system: vancomycin-resistant strain of E. faecium; settings: Kahne et al., Chem. Rev. 2005; cited from earlier work
[12] = test system: panel of Gram-positive bacteria (VSSA, MRSA, VanA and VanB VRE); assay: Antimicrobial assay, MIC across the bacterial panel; type: cell-based, S. aureus, E. faecalis, E. faecium
Description: as §1, §2

[13] = read-out: MIC, Van B E. faecalis, serum concentration 10%
[14] = read-out: MIC, Van B E. faecalis, serum concentration 25%
[15] = read-out: MIC, Van B E. faecalis, serum concentration 100%
[16] = read-out: MIC, VanB E. faecalis
[17] = read-out: MIC, Van A E. faecalis, serum concentration 10%
[18] = read-out: MIC, Van A E. faecalis, serum concentration 25%
[19] = read-out: MIC, Van A E. faecalis, serum concentration 100%
[20] = read-out: MIC, VanA E. faecalis
[21] = read-out: MIC, MRSA S. aureus, serum concentration 10%
[22] = read-out: MIC, MRSA S. aureus, serum concentration 25%
[23] = read-out: MIC, MRSA S. aureus, serum concentration 100%
[24] = read-out: MIC, Van A E. faecium, serum concentration 10%
[25] = read-out: MIC, Van A E. faecium, serum concentration 25%
[26] = read-out: MIC, Van A E. faecium, serum concentration 100%

For CN[C@H](CC(C)C)C(=O)N[C@H]1C(=O)N[C@@H](CC(N)=O)C(=O)N[C@H]2C(=O)N[C@H]3C(=O)N[C@H](C(=O)N[C@H](C(=O)O)c4cc(O)cc(O)c4-c4cc3ccc4O)[C@H](O)c3ccc(c(Cl)c3)Oc3cc2cc(c3O[C@@H]2O[C@H](CO)[C@@H](O)[C@H](O)[C@H]2O[C@H]2C[C@](C)(N)[C@H](O)[C@H](C)O2)Oc2ccc(cc2Cl)[C@H]1O [Compound 1, vancomycin, reference compound], the “MIC, VanB E. faecalis” value ([1]; ATCC 51299) was 8 µg/mL (≈ 5.52 µM), the “MIC, Van B E. faecalis, serum concentration 10%” value ([1]; ATCC 51299, 10%) was 4 µg/mL (≈ 2.76 µM) and the “MIC, Van B E. faecalis, serum concentration 25%” value ([1]; ATCC 51299, 25%) was 8 µg/mL (≈ 5.52 µM). For the same molecule, the “MIC, Van B E. faecalis, serum concentration 100%” value ([1]; ATCC 51299, 100%) was 32 µg/mL (≈ 22.1 µM), the “MIC, VanA E. faecalis” value ([2]; BM 4166) was 250 µg/mL (≈ 173 µM) and the “MIC, Van A E. faecalis, serum concentration 10%” value ([2]; BM 4166, 10%) was 250 µg/mL (≈ 173 µM). For the same molecule, the “MIC, Van A E. faecalis, serum concentration 25%” value ([2]; BM 4166, 25%) was 250 µg/mL (≈ 173 µM), the “MIC, Van A E. faecalis, serum concentration 100%” value ([2]; BM 4166, 100%) was 500 µg/mL (≈ 345 µM) and the “MIC, MRSA S. aureus” value ([3]; ATCC 43300) was 0.5 µg/mL (≈ 0.345 µM). The “MIC, MRSA S. aureus, serum concentration 10%” value ([3]; ATCC 43300, 10%) was 0.5 µg/mL (≈ 0.345 µM), the “MIC, MRSA S. aureus, serum concentration 25%” value ([3]; ATCC 43300, 25%) was 0.5 µg/mL (≈ 0.345 µM) and the “MIC, MRSA S. aureus, serum concentration 100%” value ([3]; ATCC 43300, 100%) was 1 µg/mL (≈ 0.69 µM). For the same molecule, the “MIC against VSSA and MRSA” value ([4]; one value stated for both strains) was 0.5 µg/mL (≈ 0.345 µM), the “MIC against VanA VRE” value ([5]; stated for VanA VRE) was 250 µg/mL (≈ 173 µM) and the “MIC, vancomycin-sensitive strain of E. faecium” value [6] was 1 µg/mL. The “reduction of binding affinity for the altered ligand D-Ala-D-Lac” value [7] was 1000 fold, the “MIC, sensitive S. aureus” value ([8]; ATCC 25923) was 0.5 µg/mL (≈ 0.345 µM) and the “MIC, sensitive S. aureus, serum concentration 10%” value ([8]; ATCC 25923, 10%) was 0.5 µg/mL (≈ 0.345 µM). For the same molecule, the “MIC, sensitive S. aureus, serum concentration 25%” value ([8]; ATCC 25923, 25%) was 0.5 µg/mL (≈ 0.345 µM), the “MIC, sensitive S. aureus, serum concentration 100%” value ([8]; ATCC 25923, 100%) was 0.5 µg/mL (≈ 0.345 µM) and the “MIC, VanA E. faecium” value ([9]; ATCC BAA-2317) was 250 µg/mL (≈ 173 µM). The “MIC, Van A E. faecium, serum concentration 10%” value ([9]; ATCC BAA-2317, 10%) was 250 µg/mL (≈ 173 µM), the “MIC, Van A E. faecium, serum concentration 25%” value ([9]; ATCC BAA-2317, 25%) was 250 µg/mL (≈ 173 µM) and the “MIC, Van A E. faecium, serum concentration 100%” value ([9]; ATCC BAA-2317, 100%) was 500 µg/mL (≈ 345 µM).

CN[C@H](CC(C)C)C(=O)N[C@H]1C(=O)N[C@@H](CC(N)=O)C(=O)N[C@H]2C(=O)NC3C(=O)N[C@H](C(=O)N[C@H](C(=O)O)c4cc(O)cc(O)c4-c4cc3ccc4O)[C@H](O)c3ccc(c(Cl)c3)Oc3cc2cc(c3OC2OC(CO)C(O)[C@H](O)[C@@H]2O[C@H]2CC(C)(NCc3ccc(-c4ccc(Cl)cc4)cc3)[C@H](O)[C@H](C)O2)Oc2ccc(cc2Cl)[C@H]1O (stereo partly drawn) [Compound 4, N-4-(4′-chlorobiphenyl)methyl vancomycin, reference compound] showed an MIC [1, 13] of 0.03 µg/mL (≈ 0.0182 µM), an MIC [1, 14] of 0.06 µg/mL (≈ 0.0364 µM) and an MIC [1, 15] of 0.06 µg/mL (≈ 0.0364 µM). The MIC [1, 16] was 0.03 µg/mL (≈ 0.0182 µM), the MIC [2, 17] was 2.5 µg/mL (≈ 1.52 µM) and the MIC [2, 18] was 5 µg/mL (≈ 3.03 µM). The MIC [2, 19] was 10 µg/mL (≈ 6.06 µM), the MIC [2, 20] was 2.5 µg/mL (≈ 1.52 µM) and the “resistant strain less sensitive than the sensitive strain” value [10] was “about 500 times”. The MIC ([3]; read-out: MIC, MRSA S. aureus) was 0.03 µg/mL (≈ 0.0182 µM), the MIC [3, 21] was 0.03 µg/mL (≈ 0.0182 µM) and the MIC [3, 22] was 0.06 µg/mL (≈ 0.0364 µM). The MIC [3, 23] was 0.06 µg/mL (≈ 0.0364 µM), the “improvement in activity against VSSA and MRSA on introduction of the (4-chlorobiphenyl)methyl group” value ([4]; Compound 4 vs Compound 1) was 20 fold and the MIC ([4]; Staphylococcus aureus, MRSA, read-out: MIC against VSSA and MRSA) was 0.03 µg/mL (≈ 0.0182 µM). The MIC [5] was 2.5 µg/mL (≈ 1.52 µM), the “improvement in activity against VanA VRE on introduction of the (4-chlorobiphenyl)methyl group” value [5] was 100 fold and the “MIC, vancomycin-sensitive strain of E. faecium” value [6] was 0.03 µg/mL. For the same molecule, the MIC ([8]; ATCC25923, read-out: MIC, sensitive S. aureus) was 0.03 µg/mL (≈ 0.0182 µM), the MIC ([8]; ATCC25923, read-out: MIC, sensitive S. aureus, serum concentration 10%) was 0.03 µg/mL (≈ 0.0182 µM) and the MIC ([8]; ATCC25923, read-out: MIC, sensitive S. aureus, serum concentration 25%) was 0.03 µg/mL (≈ 0.0182 µM). For the same molecule, the MIC ([8]; ATCC25923, read-out: MIC, sensitive S. aureus, serum concentration 100%) was 0.06 µg/mL (≈ 0.0364 µM), the “MIC, vancomycin-resistant strain of E. faecium” value [11] was 16 µg/mL and the MIC [9, 24] was 2.5 µg/mL (≈ 1.52 µM). The MIC [9, 25] was 5 µg/mL (≈ 3.03 µM), the MIC [9, 26] was 5 µg/mL (≈ 3.03 µM) and the MIC ([9]; read-out: MIC, VanA E. faecium) was 2.5 µg/mL (≈ 1.52 µM).

With CN[C@H](CC(C)C)C(=O)N[C@H]1C(=O)N[C@@H](CC(N)=O)C(=O)N[C@H]2C(=N)NC3C(=O)N[C@H](C(=O)N[C@H](C(=O)O)c4cc(O)cc(O)c4-c4cc3ccc4O)[C@H](O)c3ccc(c(Cl)c3)Oc3cc2cc(c3OC2OC(CO)C(O)[C@H](O)[C@@H]2O[C@H]2CC(C)(NCc3ccc(-c4ccc(Cl)cc4)cc3)[C@H](O)[C@H](C)O2)Oc2ccc(cc2Cl)[C@H]1O (stereo partly drawn) [Compound 6, N-4-(4′-chlorobiphenyl)methyl [Ψ[C(═NH)NH]Tpg^4]-vancomycin] the MIC [1, 13] was 0.06 µg/mL (≈ 0.0364 µM), the MIC [1, 14] was 0.12 µg/mL (≈ 0.0728 µM) and the MIC [1, 15] was 1 µg/mL (≈ 0.606 µM). It also gave an MIC [1, 16] of 0.06 µg/mL (≈ 0.0364 µM), an MIC [2, 17] of 0.005 µg/mL (≈ 0.00303 µM) and an MIC [2, 18] of 0.06 µg/mL (≈ 0.0364 µM). It also gave an MIC [2, 19] of 0.5 µg/mL (≈ 0.303 µM), an MIC [2, 20] of 0.005 µg/mL (≈ 0.00303 µM) and an MIC ([3]; read-out: MIC, MRSA S. aureus) of 0.06 µg/mL (≈ 0.0364 µM). It also gave an MIC [3, 21] of 0.06 µg/mL (≈ 0.0364 µM), an MIC [3, 22] of 0.24 µg/mL (≈ 0.146 µM) and an MIC [3, 23] of 1 µg/mL (≈ 0.606 µM). The “increase in activity against VanA VRE relative to vancomycin (Compound 1)” value [5] was 50,000 fold, the MIC [5] was 0.005 µg/mL (≈ 0.00303 µM) and the “improvement in activity against VanA VRE on introduction of the (4-chlorobiphenyl)methyl group” value [5] was 100 fold. It also gave an MIC ([8]; ATCC25923, read-out: MIC, sensitive S. aureus, serum concentration 10%, ATCC 25923, 10%) of 0.03 µg/mL (≈ 0.0182 µM), an MIC ([8]; ATCC25923, read-out: MIC, sensitive S. aureus, serum concentration 100%, ATCC 25923, 100%) of 1 µg/mL (≈ 0.606 µM) and an MIC ([8]; ATCC25923, ATCC 25923, 25%, read-out: MIC, sensitive S. aureus, serum concentration 25%) of 0.12 µg/mL (≈ 0.0728 µM). The MIC ([8]; ATCC25923, ATCC 25923, read-out: MIC, sensitive S. aureus) was 0.03 µg/mL (≈ 0.0182 µM), the “potency relative to Compound 17, on average across the panel” value [12] was 15 fold and the MIC [9, 24] was 0.005 µg/mL (≈ 0.00303 µM). It also gave an MIC [9, 25] of 0.06 µg/mL (≈ 0.0364 µM), an MIC [9, 26] of 0.5 µg/mL (≈ 0.303 µM) and an MIC ([9]; read-out: MIC, VanA E. faecium) of 0.005 µg/mL (≈ 0.00303 µM).
